Data reported in patent US9434711B2 (Janssen Pharmaceutica, NV, priority 2007, dated 2016).
Like-named read-outs stand apart in the source and are kept apart here.

Target: canine TRPM8 (Canis lupus familiaris, UniProt Q1A7N1)
Test: In Vitro Canine TRPM8 Functional Assay (Ca2+ fluorescence, icilin activation)
Assay type: cell-based
Conditions: for IC50: HEK293 cells stably expressing canine TRPM8, icilin activation, eight-point dose-response, read-out: IC50
How it was run: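 Eight-point dose-response curves in quadruplicate gave EC50 or IC50 values from a Ca2+-sensitive dye assay in HEK293 cells stably carrying canine TRPM8. Icilin, dosed near its 80% maximal level, followed a 5 min compound exposure.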

[1] = compound at 0.2 μM, canine TRPM8, icilin activation, read-out: % Inh @ 0.2

canine TRPM8, sequence (Q1A7N1 1-1104): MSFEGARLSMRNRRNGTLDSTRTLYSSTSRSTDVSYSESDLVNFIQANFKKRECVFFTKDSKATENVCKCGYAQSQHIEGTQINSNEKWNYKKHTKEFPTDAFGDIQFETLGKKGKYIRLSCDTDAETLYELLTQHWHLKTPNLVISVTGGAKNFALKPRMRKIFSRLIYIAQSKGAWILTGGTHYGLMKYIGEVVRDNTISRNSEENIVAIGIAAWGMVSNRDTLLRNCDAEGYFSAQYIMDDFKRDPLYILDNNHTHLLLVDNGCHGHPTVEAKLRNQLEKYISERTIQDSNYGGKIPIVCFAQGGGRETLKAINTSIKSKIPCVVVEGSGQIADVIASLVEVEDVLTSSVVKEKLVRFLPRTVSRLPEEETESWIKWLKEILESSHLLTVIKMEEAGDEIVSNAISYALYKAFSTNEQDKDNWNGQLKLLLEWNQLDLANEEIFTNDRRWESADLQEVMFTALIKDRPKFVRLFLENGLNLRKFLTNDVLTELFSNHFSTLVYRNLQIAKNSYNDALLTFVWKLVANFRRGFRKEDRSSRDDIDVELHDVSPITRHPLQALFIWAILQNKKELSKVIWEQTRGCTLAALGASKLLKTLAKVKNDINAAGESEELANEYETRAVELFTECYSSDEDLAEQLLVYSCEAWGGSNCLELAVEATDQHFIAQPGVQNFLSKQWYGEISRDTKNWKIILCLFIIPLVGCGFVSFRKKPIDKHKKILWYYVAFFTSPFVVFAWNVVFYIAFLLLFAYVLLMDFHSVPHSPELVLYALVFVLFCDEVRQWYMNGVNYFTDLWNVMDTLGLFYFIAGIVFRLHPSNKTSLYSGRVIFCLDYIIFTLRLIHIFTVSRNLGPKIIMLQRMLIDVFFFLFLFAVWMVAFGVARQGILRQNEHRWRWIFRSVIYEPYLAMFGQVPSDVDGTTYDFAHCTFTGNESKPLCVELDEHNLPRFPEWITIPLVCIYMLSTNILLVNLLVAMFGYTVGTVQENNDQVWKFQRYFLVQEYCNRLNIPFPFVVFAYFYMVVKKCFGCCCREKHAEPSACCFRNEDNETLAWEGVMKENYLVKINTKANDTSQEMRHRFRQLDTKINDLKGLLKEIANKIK

SMILES | IC50 | inhibition at 0.2 µM [1] | inhibition at 0.5 µM (compound at 0.5 μM, canine TRPM8, icilin activation, read-out: % Inh @ 0.5) | inhibition at 0.2 µM (read-out: % Inh @ 0.2 (μM))
O=S(=O)(c1ccccc1)N(CCCc1ccccc1)c1sc2ccccc2c1Br [Compound 246, N-(3-Bromo-benzo[b]thiophen-2-yl)-N-(3-phenyl-propyl)-benzenesulfonamide] | 8.8 nM | 102% | – | –
O=S(=O)(c1ccccc1)N(CC12CC3CC(CC(C3)C1)C2)c1sc2ccccc2c1Br [Compound 249, N-(Adamant-1-ylmethyl)-N-(3-bromo-benzo[b]thiophen-2-yl)-benzenesulfonamide] | 0.9 nM | 97% | – | –
COP(=O)(CCN(c1sc2ccccc2c1Br)S(=O)(=O)c1ccccc1)OC [Compound 254, N-(3-Bromo-benzo[b]thiophen-2-yl)-N-(dimethoxyphosphinoyl-ethyl)-benzenesulfonamide] | 125 nM | – | – | 58%
O=C1CCC(=O)N1CCN(c1sc2ccccc2c1Br)S(=O)(=O)c1ccccc1 [Compound 257, N-(3-Bromo-benzo[b]thiophen-2-yl)-N-[2-(2,5-dioxo-pyrrolidin-1-yl)-ethyl]-benzenesulfonamide] | – | 62% | – | –
O=C1CC[C@H](CN(c2sc3ccccc3c2Br)S(=O)(=O)c2ccccc2)N1 [Compound 258, (R)—N-(3-Bromo-benzo[b]thiophen-2-yl)-N-(5-oxo-pyrrolidin-2-ylmethyl)-benzenesulfonamide] | – | 25% | – | –
O=C1CC[C@@H](CN(c2sc3ccccc3c2Br)S(=O)(=O)c2ccccc2)N1 [Compound 259, (S)—N-(3-Bromo-benzo[b]thiophen-2-yl)-N-(5-oxo-pyrrolidin-2-ylmethyl)-benzenesulfonamide] | – | 24% | – | –
CCCCN(c1sc2ccccc2c1Br)S(=O)(=O)CC [Compound 261, N-(3-Bromo-benzo[b]thiophen-2-yl)-N-(butyl)-ethanesulfonamide] | 12.6 nM | 97% | – | –
CCS(=O)(=O)N(CC1CC1)c1sc2ccccc2c1Br [Compound 262, N-(3-Bromo-benzo[b]thiophen-2-yl)-N-(cyclopropylmethyl)-ethanesulfonamide] | 67 nM | 94% | – | –
CCS(=O)(=O)N(CC(F)F)c1sc2ccccc2c1Br [Compound 263, N-(3-Bromo-benzo[b]thiophen-2-yl)-N-(2,2-difluoro-ethyl)-ethanesulfonamide] | 203 nM | 52% | – | –
CCS(=O)(=O)N(CCOC(C)(C)C)c1sc2ccccc2c1Br [Compound 264, N-(3-Bromo-benzo[b]thiophen-2-yl)-N-(2-tert-butoxy-ethyl)-ethanesulfonamide] | 34.1 nM | 99% | – | –
CCCCN(c1sc2ccccc2c1Br)S(=O)(=O)N(C)C [Compound 265, N-(3-Bromo-benzo[b]thiophen-2-yl)-N-(butyl)-N′,N′-dimethylsulfamide] | 22 nM | 90% | – | –
CN(C)S(=O)(=O)N(CC1CC1)c1sc2ccccc2c1Br [Compound 266, N-(3-Bromo-benzo[b]thiophen-2-yl)-N-(cyclopropylmethyl)-N′,N′-dimethylsulfamide] | 39 nM | 86% | – | –
CN(C)S(=O)(=O)N(CCOC(C)(C)C)c1sc2ccccc2c1Br [Compound 267, N-(3-Bromo-benzo[b]thiophen-2-yl)-N-(2-tert-butoxy-ethyl)-N′,N′-dimethylsulfamide] | 10 nM | 96% | – | –
CN(C)S(=O)(=O)N(CC(F)F)c1sc2ccccc2c1Br [Compound 268, N-(3-Bromo-benzo[b]thiophen-2-yl)-N-(2,2-difluoro-ethyl)-N′,N′-dimethylsulfamide] | – | 67% | – | –
CN(C)S(=O)(=O)N(CCC(F)(F)F)c1sc2ccccc2c1Br [Compound 269, N-(3-Bromo-benzo[b]thiophen-2-yl)-N-(3,3,3-trifluoropropyl)-N′,N′-dimethylsulfamide] | 16 nM | 94% | – | –
CC(C)(C)OCCN(c1sc2ccccc2c1Br)S(=O)(=O)c1ccc(C(=O)O)cc1 [Compound 275, N-(3-Bromo-benzo[b]thiophen-2-yl)-N-(2-tert-butoxy-ethyl)-4-carboxy-benzenesulfonamide] | 3 nM | 97% | – | –
O=C(O)c1ccc(S(=O)(=O)N(CC(F)F)c2sc3ccccc3c2Br)cc1 [Compound 276, N-(3-Bromo-benzo[b]thiophen-2-yl)-N-(2,2-difluoro-ethyl)-4-carboxy-benzenesulfonamide] | 71 nM | 76% | – | –

Second part, led by results:

IC50 | inhibition at 0.2 µM [1] | inhibition at 0.5 µM (compound at 0.5 μM, canine TRPM8, icilin activation, read-out: % Inh @ 0.5) | SMILES | inhibition at 0.2 µM (read-out: % Inh @ 0.2 (μM))
25.5 nM | 99% | – | CCN(c1sc2ccccc2c1Br)S(=O)(=O)c1ccccc1 [Compound 247, N-(3-Bromo-benzo[b]thiophen-2-yl)-N-(ethyl)-benzenesulfonamide] | –
8.3 nM | 98% | – | CCCCCCN(c1sc2ccccc2c1Br)S(=O)(=O)c1ccccc1 [Compound 248, N-(3-Bromo-benzo[b]thiophen-2-yl)-N-(hexyl)-benzenesulfonamide] | –
12.7 nM | 102% | – | O=S(=O)(c1ccccc1)N(CCC(F)(F)F)c1sc2ccccc2c1Br [Compound 250, N-(3-Bromo-benzo[b]thiophen-2-yl)-N-(3,3,3-trifluoro-propyl)-benzenesulfonamide] | –
38.7 nM | 95% | – | CC#CCCN(c1sc2ccccc2c1Br)S(=O)(=O)c1ccccc1 [Compound 251, N-(3-Bromo-benzo[b]thiophen-2-yl)-N-(pent-3-ynyl)-benzenesulfonamide] | –
17.1 nM | 102% | – | COCCN(c1sc2ccccc2c1Br)S(=O)(=O)c1ccccc1 [Compound 252, N-(3-Bromo-benzo[b]thiophen-2-yl)-N-(2-methoxy-ethyl)-benzenesulfonamide] | –
27.3 nM | 101% | – | CC(=O)CCCN(c1sc2ccccc2c1Br)S(=O)(=O)c1ccccc1 [Compound 253, N-(3-Bromo-benzo[b]thiophen-2-yl)-N-(4-oxo-pentyl)-benzenesulfonamide] | –
86 nM | 89% | – | O=S(=O)(c1ccccc1)N(CC1CC1)c1sc2ccccc2c1Br [Compound 255, N-(3-Bromo-benzo[b]thiophen-2-yl)-N-(cyclopropylmethyl)-benzenesulfonamide] | –
30 nM | 87% | – | O=S(=O)(c1ccccc1)N(CCN1CCCCC1)c1sc2ccccc2c1Br [Compound 256, N-(3-Bromo-benzo[b]thiophen-2-yl)-N-(2-piperidin-1-yl-ethyl)-benzenesulfonamide] | –
50 nM | 86% | – | CSCCN(c1sc2ccccc2c1Br)S(=O)(=O)c1ccccc1 [Compound 260, N-(3-Bromo-benzo[b]thiophen-2-yl)-N-(2-methylsulfanyl-ethyl)-benzenesulfonamide] | –
338 nM | – | 75% | NCCN(c1sc2ccccc2c1Cl)S(=O)(=O)c1ccccc1 [Compound 270, N-(2-Amino-ethyl)-N-(3-chloro-benzo[b]thiophen-2-yl)-benzenesulfonamide] | –
36 nM | 94% | – | COCCN(c1sc2ccccc2c1Br)S(=O)(=O)c1ccc(C(=O)O)cc1 [Compound 274, N-(3-Bromo-benzo[b]thiophen-2-yl)-N-(2-methoxyethyl)-4-carboxy-benzenesulfonamide] | –
